Measurements published in patent US9079886B2, “Substituted triazole derivatives as gamma secretase modulators” (Janssen Pharmaceuticals, Inc., priority 2010, dated 2015).
Counter-ions that a name gives are not always drawn.

Row | melting point [°C] | Compound
1 | 131.5 | COc1cc(Nc2nc(OC3CCCC(C(F)(F)F)C3)n(C(C)C)n2)ccc1-c1ccnc(C)c1 (centres unmarked) (as salt: HCl) (hydrate or solvate) [Compound 117]
2 | 179 | COc1cc(Nc2nc(Cc3cccc(C(F)(F)F)c3)n(CCNC(C)=O)n2)ccc1-n1cnc(C)c1 [Compound 1]
3 | 199.9 | COc1cc(Nc2nc(N3CCCC(C(F)(F)F)C3)n(C)n2)ccc1-n1cnc(C)c1 (centres unmarked) [Compound 2]
4 | 202.7 | COc1cc(Nc2nc(Oc3ccccc3Cl)n(C(C)C)n2)ccc1-n1cnc(C)n1 [Compound 4]
5 | 157.2 | COc1cc(Nc2nc(Oc3cccc(Cl)c3C)n(C(C)C)n2)ccc1-n1cnc(C)n1 [Compound 8]
6 | 158.4 | COc1cc(NC(=O)c2nc(Oc3ccc(F)cc3C)n(C(C)C)n2)ccc1-n1cnc(C)c1 [Compound 9]
7 | 185.1 | COc1nc(Nc2nc(-c3cccc(C(F)(F)F)c3)n(C(C)C)n2)ccc1-n1cnc(C)c1 [Compound 17]
8 | 164.2 | COc1cc(Nc2nc(N3CCCC(c4ccccc4)C3)n(C(C)C)n2)ccc1-n1cnc(C)c1 (centres unmarked) [Compound 18]
9 | 210.1 | COc1cc(Nc2nc(Oc3ccccc3Cl)n(C)n2)ccc1-n1cnc(C)c1 [Compound 51]
10 | 169.9 | COc1cccc(C2CCN(c3nc(Nc4ccc(-n5cnc(C)c5)c(OC)c4)nn3C(C)C)C2)c1 (centres unmarked) [Compound 53]
11 | 189.4 | COc1cc(Nc2nc(N3C[C@@H](C)O[C@@H](C)C3)n(C(C)C)n2)ccc1-n1cnc(C)c1 [Compound 55]
12 | 170.1 | COc1cc(Nc2nc(N3CCc4ccccc4C3)n(C)n2)ccc1-n1cnc(C)c1 [Compound 56]
13 | 214.5 | COc1cc(Nc2nc(N3CCc4ccccc4C3)n(C(C)C)n2)ccc1-n1cnc(C)c1 [Compound 57]
14 | 175 | COc1cc(Nc2nc(Oc3ccccc3Cl)n(C)n2)ccc1-c1ccnc(C)c1 [Compound 61]
15 | 177.1 | COc1cc(Nc2nc(N3CCN(C(=O)OC(C)(C)C)CC3)n(C(C)C)n2)ccc1-c1ccnc(C)c1 [Compound 132]
16 | 221.9 | COc1cc(Nc2nc(-c3cccc(C(F)(F)F)c3)n(C(C)C)n2)ccc1-c1ccnc(C)c1 [Compound 136]
17 | 138.6 | COc1cc(Nc2nc(Oc3ccccc3Cl)n(CCNC(C)C)n2)ccc1-c1ccnc(C)c1 [Compound 149]
18 | 159.6 | Cc1cc(-c2ccc(Nc3nc(Oc4cccc(Cl)c4C)n(C(C)C)n3)cc2)ccn1 [Compound 157]
19 | 125.4 | COc1cc(Nc2nc(Oc3cccc(Cl)c3)n(C(C)C)n2)ccc1-c1ccnc(C)c1 [Compound 158]
20 | 172.7 | COc1cc(Nc2nc(Oc3ccc(F)cc3C)n(C(C)C)n2)ccc1-c1ccnc(C)c1 [Compound 163]
21 | 169.3 | COc1cc(Nc2nc(Oc3cccc(N4CCOCC4)c3)n(C(C)C)n2)ccc1-c1ccnc(C)c1 [Compound 171]
22 | 158.4 | COc1cc(Nc2nc(N3CCCN(C(C)=O)CC3)n(C(C)C)n2)ccc1-c1ccnc(C)c1 [Compound 176]

The remaining lines, values behind:

Row | Compound | melting point [°C]
23 | Cc1cc(-c2ccc(Nc3nc(-c4cccc(C(F)(F)F)c4)n(C)n3)cc2)ccn1 [Compound 60] | 184.2
24 | Cc1cc(F)ccc1Oc1nc(Nc2ccc(-c3ccncc3)cc2)nn1C(C)C [Compound 112] | 204.1 to 205.4
25 | Cn1nc(Nc2ccc(-c3ccncc3)cc2)nc1-c1cccc(C(F)(F)F)c1 [Compound 113] | 220.7
26 | Cc1cc(-c2ccc(Nc3nc(-c4cccc(C(F)(F)F)c4)n(C(C)C)n3)cc2)ccn1 [Compound 137] | 210.3
27 | Cc1cc(-c2ccc(Nc3nc(-c4cccc(C(F)(F)F)c4)n(C(C)C)n3)cc2F)ccn1 [Compound 138] | 199.6
28 | COc1cc(Nc2nc(Oc3ccccc3Cl)n(CC(OC)OC)n2)ccc1-c1ccnc(C)c1 [Compound 147] | 90.1
29 | Cc1cc(-c2ccc(Nc3nc(Oc4c(C)cccc4Cl)n(C(C)C)n3)cc2)ccn1 [Compound 155] | 222.6
30 | Cc1cc(-c2ccc(Nc3nc(Oc4cc(F)ccc4Cl)n(C(C)C)n3)cc2)ccn1 [Compound 161] | 132.7
31 | Cc1cc(-c2ccc(Nc3nc(Oc4ccc(F)cc4C)n(C(C)C)n3)cc2)ccn1 [Compound 164] | 138.9
32 | COc1cc(Nc2nc(Oc3ccccc3C(F)(F)F)n(C)n2)ccc1-c1ccnc(C)c1 [Compound 166] | 159.6
33 | COc1cc(Nc2nc(Oc3cc(C(F)(F)F)ccc3F)n(C)n2)ccc1-c1ccnc(C)c1 [Compound 168] | 145.1
34 | COc1cc(Nc2nc(Oc3ccc(F)cc3C(F)(F)F)n(C(C)C)n2)ccc1-c1ccnc(C)c1 [Compound 169] | 134.8
35 | Cc1cc(F)ccc1Oc1nc(Nc2ccc(-c3ccnc(C(F)(F)F)c3)cc2)nn1C(C)C [Compound 177] | 165.9 to 166.9
36 | Cn1nc(Nc2ccc(-c3ccnc(C(F)(F)F)c3)cc2)nc1-c1cccc(C(F)(F)F)c1 [Compound 178] | 179.2
37 | COc1ccc(-c2ccc(Nc3nc(Oc4ccc(F)cc4C)n(C(C)C)n3)cc2)cn1 [Compound 179] | 142.7 to 144.7
38 | COc1cc(-c2ccc(Nc3nc(Oc4ccc(F)cc4C)n(C(C)C)n3)cc2)ccn1 [Compound 180] | 132.8 to 143.6
